Reference: patent US20090311237A1, “Combination therapy using a soluble hyaluronidase and a bisphosphonate” (priority 2008, published 2009)
“And” between values parts separate entries of the source, which are not always exact repeats. Equal entries are not always repeated.

Experiment: Phase 1 Stage 1 clinical pharmacokinetics of SC ZA co-administered with rHuPH20
Type: in vivo, human
Design: key to Mean Conc. / Median Conc.: BLQ = blow limit for quantitation
Settings: serum; for Zoledronic Acid Concentration: individual subjects; for Mean Conc. / Median Conc.: n=3
Description: A pharmacokinetic study of zoledronic acid (ZA) co-administered with rHuPH20 in human subjects was conducted. The primary objective of the study was to determine the bioavailability of zoledronic acid dosed via subcutaneous (SC) co-administration with human recombinant hyaluronidase PH20 (rHuPH20). […] The patients were administered the prescribed dosage formulations as follows: Cohorts 1-5 were administered a single subcutaneous infusion in a dosage volume of 100 ml at a rate of 3 mL/min. […] The dosing solution is administered via needle or catheter into the SC space of the left anterior thigh (midway between the anterior iliac crest and the cephalad border of the patella). For cohorts 1-5, the dosing solutions were administered by a controlled rate infusion pump at approximately 3 mL/minute. […] The dosing solutions were administered by syringe push bolus injection. […] Serum concentration of ZA was determined using a qualified LC-MS-MS assay after derivatization with diazomethane (Zhu, L S et al. (2006) Rapid Commun. […] The assay range was from 2.0 to 400 ng/mL with a lower limit of quantitation (LLOQ) at 2.0 ng/mL. […] Non-compartmental analysis was used for derivation of primary and secondary pharmacokinetic (PK) parameters. […] Summary statistics (mean, standard deviation, and median) were calculated using JMP or Microsoft Excel.

[1] = ZA 0.5 mg SC infusion + 24000 Units rHuPH20, 24 h post infusion
[2] = ZA 0.5 mg SC infusion + 24000 Units rHuPH20, 48 h post infusion
[3] = ZA 1 mg SC infusion + 24000 Units rHuPH20, 48 h post infusion

For `O=P(O)(O)C(O)(Cn1ccnc1)P(=O)(O)O` [ZA, 1-hydroxy-2-(1H-imidazol-1-yl)ethylidene-1,1-bisphosphonic acid], the “Zoledronic Acid Concentration” value (ZA 0.5 mg SC infusion + 24000 Units rHuPH20, 10 min post infusion, listed as Zoledronic Acid) was 16.80 ng/mL, the “Zoledronic Acid Concentration” value (ZA 0.5 mg SC infusion + 24000 Units rHuPH20, 0.5 h post infusion, listed as Zoledronic Acid) was 16.50 ng/mL and the “Zoledronic Acid Concentration” value (ZA 0.5 mg SC infusion + 24000 Units rHuPH20, 1 h post infusion, listed as Zoledronic Acid) was 15.00 ng/mL. For the same molecule, the “Zoledronic Acid Concentration” value [1] was “BLQ < (0.500) ng/mL”, the “Mean Conc.” value [1] was “BLQ” and the “Median Conc.” value [1] was “BLQ”. The “Zoledronic Acid Concentration” value [2] was “BLQ < (0.500) ng/mL”, the “Mean Conc.” value [2] was “BLQ” and the “Median Conc.” value [2] was “BLQ”. For the same molecule, the “Zoledronic Acid Concentration” value (ZA 1 mg SC infusion + 24000 Units rHuPH20, 0 h post infusion, listed as Zoledronic Acid) was 15.30 ng/mL, the “Zoledronic Acid Concentration” value (ZA 1 mg SC infusion + 24000 Units rHuPH20, 10 min post infusion, listed as Zoledronic Acid) was 25.00 ng/mL and the “Zoledronic Acid Concentration” value (ZA 1 mg SC infusion + 24000 Units rHuPH20, 0.5 h post infusion, listed as Zoledronic Acid) was 23.00 ng/mL. The “Zoledronic Acid Concentration” value (ZA 1 mg SC infusion + 24000 Units rHuPH20, 1 h post infusion, listed as Zoledronic Acid) was 19.40 ng/mL, the “Zoledronic Acid Concentration” value (ZA 1 mg SC infusion + 24000 Units rHuPH20, 2 h post infusion, listed as Zoledronic Acid) was 17.00 ng/mL and the “Zoledronic Acid Concentration” value (ZA 1 mg SC infusion + 24000 Units rHuPH20, 4 h post infusion, listed as Zoledronic Acid) was 10.20 ng/mL. For the same molecule, the “Zoledronic Acid Concentration” value (ZA 1 mg SC infusion + 24000 Units rHuPH20, 6 h post infusion, listed as Zoledronic Acid) was 5.47 ng/mL, the “Zoledronic Acid Concentration” value (ZA 1 mg SC infusion + 24000 Units rHuPH20, 8 h post infusion, listed as Zoledronic Acid) was 3.17 ng/mL and the “Zoledronic Acid Concentration” value (ZA 1 mg SC infusion + 24000 Units rHuPH20, 12 h post infusion, listed as Zoledronic Acid) was 1.30 ng/mL. The “Zoledronic Acid Concentration” value (ZA 1 mg SC infusion + 24000 Units rHuPH20, 24 h post infusion, listed as Zoledronic Acid) was 0.51 ng/mL, the “Zoledronic Acid Concentration” value [3] was “BLQ < (0.500) ng/mL” and the “Mean Conc.” value [3] was “BLQ”. For the same molecule, the “Median Conc.” value [3] was “BLQ”, the “Zoledronic Acid Concentration” value (ZA 2 mg SC infusion + 24000 Units rHuPH20, 0 h post infusion, listed as Zoledronic Acid) was 39.60 ng/mL and 40.80 ng/mL and the “Zoledronic Acid Concentration” value (ZA 2 mg SC infusion + 24000 Units rHuPH20, 10 min post infusion, listed as Zoledronic Acid) was 46.30 ng/mL and 46.00 ng/mL. The “Zoledronic Acid Concentration” value (ZA 2 mg SC infusion + 24000 Units rHuPH20, 0.5 h post infusion, listed as Zoledronic Acid) was 47.30 ng/mL and 48.60 ng/mL, the “Zoledronic Acid Concentration” value (ZA 2 mg SC infusion + 24000 Units rHuPH20, 1 h post infusion, listed as Zoledronic Acid) was 53.00 ng/mL and 58.70 ng/mL and the “Zoledronic Acid Concentration” value (ZA 2 mg SC infusion + 24000 Units rHuPH20, 2 h post infusion, listed as Zoledronic Acid) was 40.10 ng/mL and 42.20 ng/mL. The “Zoledronic Acid Concentration” value (ZA 2 mg SC infusion + 24000 Units rHuPH20, 4 h post infusion, listed as Zoledronic Acid) was 20.30 ng/mL and 23.00 ng/mL, the “Zoledronic Acid Concentration” value (ZA 2 mg SC infusion + 24000 Units rHuPH20, 6 h post infusion, listed as Zoledronic Acid) was 7.71 ng/mL and 8.93 ng/mL and the “Zoledronic Acid Concentration” value (ZA 2 mg SC infusion + 24000 Units rHuPH20, 8 h post infusion, listed as Zoledronic Acid) was 3.34 ng/mL and 4.81 ng/mL. The “Zoledronic Acid Concentration” value (ZA 2 mg SC infusion + 24000 Units rHuPH20, 12 h post infusion, listed as Zoledronic Acid) was 1.64 ng/mL and 2.07 ng/mL, the “Zoledronic Acid Concentration” value (ZA 2 mg SC infusion + 24000 Units rHuPH20, 24 h post infusion, listed as Zoledronic Acid) was 0.85 ng/mL and 0.98 ng/mL and the “Zoledronic Acid Concentration” value (ZA 2 mg SC infusion + 24000 Units rHuPH20, 48 h post infusion, listed as Zoledronic Acid) was “BLQ < (0.500) ng/mL”. The “Median Conc.” value (ZA 2 mg SC infusion + 24000 Units rHuPH20, 48 h post infusion) was “BLQ”, the “Zoledronic Acid Concentration” value (ZA 5 mg SC infusion + 24000 Units rHuPH20, 0 h post infusion, listed as Zoledronic Acid) was 82.30 ng/mL and 53.50 ng/mL and 130.00 ng/mL and the “Zoledronic Acid Concentration” value (ZA 5 mg SC infusion + 24000 Units rHuPH20, 10 min post infusion, listed as Zoledronic Acid) was 76.10 ng/mL and 132.00 ng/mL. The “Zoledronic Acid Concentration” value (ZA 5 mg SC infusion + 24000 Units rHuPH20, 0.5 h post infusion, listed as Zoledronic Acid) was 112.00 ng/mL and 132.00 ng/mL, the “Zoledronic Acid Concentration” value (ZA 5 mg SC infusion + 24000 Units rHuPH20, 1 h post infusion, listed as Zoledronic Acid) was 113.00 ng/mL and 116.00 ng/mL and the “Zoledronic Acid Concentration” value (ZA 5 mg SC infusion + 24000 Units rHuPH20, 2 h post infusion, listed as Zoledronic Acid) was 89.80 ng/mL and 86.50 ng/mL. The “Zoledronic Acid Concentration” value (ZA 5 mg SC infusion + 24000 Units rHuPH20, 4 h post infusion, listed as Zoledronic Acid) was 42.80 ng/mL and 61.70 ng/mL, the “Zoledronic Acid Concentration” value (ZA 5 mg SC infusion + 24000 Units rHuPH20, 6 h post infusion, listed as Zoledronic Acid) was 22.30 ng/mL and 27.80 ng/mL and the “Zoledronic Acid Concentration” value (ZA 5 mg SC infusion + 24000 Units rHuPH20, 8 h post infusion, listed as Zoledronic Acid) was 11.00 ng/mL and 12.50 ng/mL. The “Zoledronic Acid Concentration” value (ZA 5 mg SC infusion + 24000 Units rHuPH20, 12 h post infusion, listed as Zoledronic Acid) was 4.61 ng/mL and 5.00 ng/mL, the “Zoledronic Acid Concentration” value (ZA 5 mg SC infusion + 24000 Units rHuPH20, 24 h post infusion, listed as Zoledronic Acid) was 2.98 ng/mL and 2.23 ng/mL and the “Zoledronic Acid Concentration” value (ZA 5 mg SC infusion + 24000 Units rHuPH20, 48 h post infusion, listed as Zoledronic Acid) was 1.63 ng/mL and 1.74 ng/mL.
